Source: patent US20080020973A1 (priority 2004, published 2008)
Where two headings read alike, the source gives them in different places.

Key:
[1] = biological target: T1, vaccinia DNA topoisomerase IB (vTopo) (Vaccinia virus, UniProt P68698); assay: biochemical; settings: for remaining activity at 100 µM: 0.5 h, read-out: % vTopo activity
[2] = biological target: T1, vaccinia DNA topoisomerase IB (vTopo); assay: biochemical
[3] = biological target: human topoisomerase type IB (hTopo) (Homo sapiens, UniProt P11387); assay: biochemical; assay type: biochemical
vTopo [4] = biological target: T2, vTopo (Vaccinia virus, UniProt P68698); assay type: biochemical
T2 construct: made in house

vTopo [5] = biological target: T2, vTopo; assay type: biochemical; remark: listed apart in the source
vTopo [6] = biological target: T2, vTopo; assay type: biochemical; settings: equilibrium cleavage
Y274F vTopo = biological target: T3, Y274F vTopo (Vaccinia virus, UniProt P68698, Y274F); assay type: binding
T3 construct: made in house

human topo IB enzyme = biological target: T4, human topo IB enzyme (Homo sapiens, UniProt P11387); settings: cited from earlier work
T4 sequence (P11387 1-765): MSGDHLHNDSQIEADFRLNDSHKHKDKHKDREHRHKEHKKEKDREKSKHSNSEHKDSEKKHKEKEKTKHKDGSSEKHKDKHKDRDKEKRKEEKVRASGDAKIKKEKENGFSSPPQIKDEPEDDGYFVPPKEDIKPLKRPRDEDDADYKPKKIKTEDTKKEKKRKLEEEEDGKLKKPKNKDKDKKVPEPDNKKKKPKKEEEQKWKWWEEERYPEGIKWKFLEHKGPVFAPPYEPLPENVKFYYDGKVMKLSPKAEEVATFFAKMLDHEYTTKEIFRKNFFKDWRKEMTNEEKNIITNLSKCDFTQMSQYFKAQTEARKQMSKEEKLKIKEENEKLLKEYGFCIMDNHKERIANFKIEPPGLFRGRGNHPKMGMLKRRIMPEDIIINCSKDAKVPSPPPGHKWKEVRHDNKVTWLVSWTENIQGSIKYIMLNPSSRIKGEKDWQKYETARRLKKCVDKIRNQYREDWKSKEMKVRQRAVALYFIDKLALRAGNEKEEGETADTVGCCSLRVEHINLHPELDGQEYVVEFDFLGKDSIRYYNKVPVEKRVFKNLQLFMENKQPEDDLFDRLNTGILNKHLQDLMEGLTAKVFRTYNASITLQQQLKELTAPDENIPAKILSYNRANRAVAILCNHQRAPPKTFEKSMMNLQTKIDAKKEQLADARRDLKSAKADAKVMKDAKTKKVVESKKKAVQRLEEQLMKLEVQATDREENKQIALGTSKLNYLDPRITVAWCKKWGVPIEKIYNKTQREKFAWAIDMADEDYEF

vTopo [7] = biological target: T2, vTopo; settings: inhibition of vTopo; cited from earlier work
[8] = read-out: % Inhibition (RNAse HTS)
[9] = read-out: % Inhibition (plasmid SC release assay)

Compound: Cc1cc(O)c(-c2cc(O)c(C)cc2O)cc1O [NSC 2805]
- remaining activity at 100 µM [1]: 30%

Compound: CCCCCC(O)C1C(=O)OC(C)O/C=C/C=C/C=CC=C/C=C(/C)C(O)CC(O)CC(O)CC(O)CC(O)CC(O)CC1O (stereo not shown) [NSC 3364]
- inhibition at 100 µM [1, 8]: 100%

Compound: O=C(O)c1ccc2ccc(-c3cccc4cccc(C(=O)O)c34)cc2c1 [NSC 7810]
- inhibition at 2.5 µM [1, 8]: 100%
- inhibition at 10 µM [2, 9]: 100%

Compound: CCC(=C(C)C)c1ccc(Oc2cccc(C(=O)O)c2)cc1 [NSC 7962]
- remaining activity at 100 µM [1]: 33%

Compound: Cc1cc(N)c2cc(NC(=O)Nc3ccc4nc(C)cc(N)c4c3)ccc2n1 [NSC 12155]
- inhibition at 2.5 µM [1, 8]: 100%
- inhibition at 0.5 µM [2, 9]: 40%

Compound: Cc1ccc(S(=O)(=O)C2C(C3COC(C)(C)O3)OC3OC(C)(C)OC32)cc1 (stereo not shown) [NSC 14163]
- Selectivity [3]: >3333
- inhibition at 20 µM [3, 9]: 0%
- inhibition at 2.5 µM [1, 8]: 100%
- inhibition at 5 µM [2, 9]: 50%

Compound: CN(C)CS/C(N)=N/[C@H](O)C(Cl)(Cl)Cl [NSC 14555]
- % vTopo activity [1]: 28%
- inhibition of the relaxation reaction [2]: complete inhibition

Compound: Nc1c(OCC(=O)O)ccc2cc(S(=O)(=O)O)ccc12 [NSC 16163]
- inhibition at 100 µM [1, 8]: 100%

Compound: COc1ccc(/C=N/c2c(O)ccc3ccccc23)cc1OC [NSC 17061]
- % Inhibition (RNAse HTS) ([1]; 100 µM): Partial @100 μM

Compound: CC(CCC(=O)O)(c1cc(Br)c(O)c(Br)c1)c1cc(Br)c(O)c(Br)c1 [NSC 21588]
- inhibition at 1.2 µM [1, 8]: 100%
- inhibition at 5 µM [2, 9]: 100%

Compound: Cc1cc(N)c2cc(OCCOc3ccc4nc(C)cc(N)c4c3)ccc2n1 [NSC 22907]
- inhibition at 100 µM [1, 8]: 100%

Compound: Nc1c(S(N)(=O)=O)cc(S(N)(=O)=O)cc1S(N)(=O)=O [NSC 25857]
- inhibition at 100 µM [1, 8]: 100%

Compound: Cc1ccc2nc(-c3ccc(NC(=O)c4ccc(N)cc4)c(S(=O)(=O)O)c3)sc2c1 [NSC 26699]
- inhibition at 100 µM [1, 8]: 100%

Compound: O=C(O)C(O)(c1ccc(-c2ccccc2)cc1)c1ccc(-c2ccccc2)cc1 [NSC 28086]
- inhibition at 1 µM [1, 8]: 100%
- inhibition at 5 µM [2, 9]: 100%

Compound: CC(=O)c1ccccc1C(=O)c1ccc(C(=O)O)c(C(=O)O)c1 [NSC 28620]
- inhibition at 1 µM [1, 8]: 100%
- inhibition at 5 µM [2, 9]: 100%

Compound: CC(C)(C)C(=O)C(C(c1ccccc1)N1CCOCC1)N1CCOCC1 (stereo not shown) [NSC 33571]
- inhibition at 100 µM [1, 8]: 100%

Compound: Nc1ccc(S(=O)(=O)c2ccc(NCN3C(=O)NC(=O)C(=O)C3=O)cc2)cc1 [NSC 34238]
- inhibition at 100 µM [1, 8]: 100%

Compound: CNCSC(C)c1ccc(O)c(O)c1 (stereo not shown) [NSC 39215]
- remaining activity at 100 µM [1]: 27%

Compound: CN(C)Cc1cc(O)c(O)c(CN(C)C)c1 [NSC 39225]
- remaining activity at 100 µM [1]: 52%

Compound: Cc1c/c(=N\c2ccc3c(c2)c(N)cc(C)[n+]3C)nc(N)n1C [NSC 48223]
- inhibition at 100 µM [1, 8]: 100%

Compound: COc1ccc2c(=O)cc(-c3ccncc3)oc2c1OC [NSC 54646]
- inhibition at 10 µM [1, 8]: 100%

Compound: O=C1C=C/C(=N/c2cccc3c(/N=C4/C=CC(=O)O4)cccc23)O1 [NSC 69575]
- inhibition at 100 µM [1, 8]: 100%

Compound: O=C(O)C1C(C(=O)Nc2ccc3c(c2)Cc2ccccc2-3)C2(Cl)C(Cl)=C(Cl)C1(Cl)C2(Cl)Cl (stereo not shown) [NSC 73101]
- inhibition at 100 µM [1, 8]: 100%

Compound: O=C(O)CCc1ccc(-c2ccccc2)[nH]1 [NSC 75600]
- remaining activity at 100 µM [1]: 35%

Compound: COc1ccc2c3c([nH]c2c1)C1CC2C(CC(O)C(OC)C2C(=O)O)CN1CC3 (stereo not shown) [NSC 81463]
- % Inhibition (RNAse HTS) ([1]; 100 µM): Partial @100 μM

Compound: CC1CCC2(C(=O)O)CCC3(C)C(=CCC4C5(C)CC(O)C(O)C(C)(CO)C5C(O)CC43C)C2C1C (stereo not shown) [NSC 88135]
- inhibition at 100 µM [1, 8]: 100%

Compound: C[C@]12CCC(=O)C=C1CCC1[C@@H]3CC[C@H](C(=O)OS(=O)(=O)c4ccc(Br)cc4)C3CC[C@@H]12 (stereo partly shown) [NSC 88915]
- Selectivity [3]: 833
- inhibition at 5 µM [3, 9]: 50%
- inhibition at 0.5 µM [1, 8]: 100%
- inhibition at 0.006 µM [2, 9]: 50%

Compound: O=C1CNCCCN2CCN(CCCNCC(=O)Nc3ccc(cc3)S(=O)(=O)c3ccc(cc3)NC(=O)CNCCCN3CCN(CCCNCC(=O)Nc4ccc(cc4)S(=O)(=O)c4ccc(cc4)N1)CC3)CC2 [NSC 95609]
- inhibition at 100 µM [1, 8]: 100%

Compound: CC[C@@]1(O)C(=O)OCc2c1cc1n(c2=O)Cc2cc3ccccc3nc2-1 [NSC 100880]
- % Inhibition (RNAse HTS) ([1]; 100 µM): Partial @100 μM

Compound: Cc1cc(Cl)nc2ccc(Cc3ccc4nc(Cl)cc(C)c4c3)cc12 [NSC 109451]
- % Inhibition (RNAse HTS) ([1]; 100 µM): Partial @100 μM

Compound: O=C(O)C(=O)Cc1ccc2c(c1)OCO2 [NSC 112983]
- inhibition of the hTopo supercoil relaxation reaction [3]: no detectable inhibition
- effect on the single-turnover cleavage rate (vTopo [4]; 8 μM): no effect
- cleavage rate kcl (vTopo [4]; in the presence of 8 μM 112983 (2.3±0.06 in its absence)): 1.8 ± 0.05 s⁻¹
- IC50 [1]: ~2 µM
- Ki [1]: 1.6 ± 0.6 µM
- remaining activity at 100 µM [1]: 9%
- inhibition at 8 µM ([1]; read-out: inhibition of the ribonuclease reaction rate): ~75%
- % covalent complex remaining (vTopo [5]): 7%
- decrease of fraction covalent complex remaining (vTopo [5]): 50%
- IC50 [2]: ~7 µM
- inhibition of the supercoil relaxation activity of vTopo [2]: complete inhibition
- decrease of percent covalently bound DNA (vTopo [6]; 100 μM compound): 50%
- decrease in the amount of covalent complex (vTopo [6]; 100 μM, vs control without compound): 2 fold
- anisotropy of Y274F-DNA complex in presence of compound (Y274F vTopo): unchanged

Compound: C/C(=N\C1CCCCC1)c1ccccc1O [NSC 120917]
- remaining activity at 100 µM [1]: 28%
- inhibition of the relaxation reaction [2]: complete inhibition

Compound: C/C(=N\CC(=O)O)c1ccccc1 [NSC 125214]
- remaining activity at 100 µM [1]: 53%

Compound: COc1ccc2nc3cc(Cl)ccc3c(Nc3ccc(O)c(CN4CCN(C)CC4)c3)c2c1 [NSC 130813]
- inhibition at 100 µM [1, 8]: 100%

Compound: Oc1cc(O)c2c(c1)OC(c1ccc(O)c(O)c1)C(O)C2c1c(O)cc(O)c2c1OC(c1ccc(O)c(O)c1)C(O)C2 (stereo not shown) [NSC 143099]
- inhibition at 1 µM [1, 8]: 100%
- inhibition at 5 µM [2, 9]: 100%

Compound: Oc1cc(O)c2c(c1)OC(c1ccc(O)c(O)c1)C(OC1(c3cc(O)c(O)c(O)c3)Oc3cc(O)cc(O)c3C(O)C1O)C2 (stereo not shown) [NSC 143101]
- inhibition at 0.5 µM [1, 8]: 100%
- inhibition at 0.5 µM [2, 9]: 70%

Compound: O=[N+]([O-])/C=C/c1cc2ccccc2[nH]1 [NSC 150982]
- remaining activity at 100 µM [1]: 54%

Compound: O=C(O)Cc1c(O)ccc2ccccc12 [NSC 163339]
- remaining activity at 100 µM [1]: 48%

Compound: Oc1c(Cl)cc(C(c2cc(Cl)c(O)c(Cl)c2)C(c2cc(Cl)c(O)c(Cl)c2)c2cc(Cl)c(O)c(Cl)c2)cc1Cl [NSC 172033]
- inhibition at 10 µM [1, 8]: 100%

Compound: Nc1ncnc2nc[nH]c12.Nc1ncnc2nc[nH]c12.[Cl][Pt]([Cl])([Cl])[Cl] [NSC 177395]
- % Inhibition (RNAse HTS) ([1]; 100 µM): 100% @

Compound: O=C(O)c1cc(-c2ccc(-c3ccc(-c4cc(C(=O)O)c5cc(Cl)ccc5n4)cc3)cc2)nc2ccc(Cl)cc12 [NSC 210627]
- inhibition at 100 µM [1, 8]: 100%

Compound: O=C(O)c1cc2c(cc1S(=O)(=O)O)C1C(C3C2C2(Cl)C(Cl)=C(Cl)C3(Cl)C2(Cl)Cl)C2(Cl)C(Cl)=C(Cl)C1(Cl)C2(Cl)Cl (stereo not shown) [NSC 270718]
- % Inhibition (RNAse HTS) ([1]; 10 µM): 100% @

Compound: CCC(O)[NH+]1CC[NH+](C(O)CC)CC1.[Cl][Pt-2]([Cl])([Cl])([Cl])([Cl])[Cl] (stereo not shown) [NSC 295558]
- % Inhibition (RNAse HTS) ([1]; 100 µM): 100% @

Compound: Cc1ccc(NC(=[OH+])c2cc3ccccc3cc2O)c(C)c1.Cc1ccc(NC(=[OH+])c2cc3ccccc3cc2O)c(C)c1.[Ni] [NSC 306698]
- % Inhibition (RNAse HTS) ([1]; 100 µM): 100% @100 μM

Compound: CN1CCN(c2ccc3[nH]c(-c4ccc5[nH]c(-c6ccc(O)cc6)nc5c4)nc3c2)CC1 [NSC 322921]
- inhibition at 100 µM [1, 8]: 100%

Compound: N#C/C(=C\Nc1ccccn1)C(=O)c1ccco1 [NSC 379552]
- remaining activity at 100 µM [1]: 7%

Compound: O=C(O)CSCc1ccc(N=C=S)c(O)c1 [NSC 403376]
- remaining activity at 100 µM [1]: 45%

Compound: COP(OCc1ccccc1)Oc1cccc2c1C(=O)c1cn3c(c1C2=O)C(C)c1ccccc1C3 (stereo not shown) [NSC 611615]
- inhibition at 100 µM [1, 8]: 100%

Compound: COc1cc(C)cc2c(-c3c(O)cc(O)c4c3CC(C)NC4C)cc(-c3cc(-c4c(O)cc(O)c5c4CC(C)NC5C)c4cc(C)cc(OC)c4c3O)c(O)c12 (stereo not shown) [NSC 661755]
- inhibition at 10 µM [1, 8]: 100%

Compound: CC(CCC(=O)O)C1CCC2C3CCC4CC(O)CCC4(C)C3CCC12C (stereo not shown) [NSC 683770]
- inhibition at 100 µM [1, 8]: 100%

Compound: O=C(O)c1cnc2c(ccc3ncc(C(=O)O)c(O)c32)c1O [NSC 1288884]
- % Inhibition (RNAse HTS) ([1]; 100 µM): Partial @100 μM

Compound: CO[C@@H]1[C@@H](OC(N)=O)[C@@H](O)[C@H](Oc2ccc3c(O)c(NC(=O)c4ccc(O)c(CC=C(C)C)c4)c(=O)oc3c2C)OC1(C)C [novobiocin]
- inhibition of human topo IB enzyme (human topo IB enzyme): no inhibition
- inhibition of the relaxation reaction [2]: complete inhibition
- Ki (vTopo [7]): 325 µM
